Source: publication PMC10325900, “A conserved motif in the disordered linker of human MLH1 is vital for DNA mismatch repair and its function is diminished by a cancer family mutation” (Nucleic Acids Research, 2023)
No end group written: not given here.

How the values were obtained:
[1] = 33 μM peptide, 20 mM Na-phosphate pH 7.2, 25–95°C, detection at 222 nm
Procedure: For the CD analysis, 33 μM ConMot peptide was used in 20 mM Na-phosphate buffer pH 7.2, 20°C. Three scans were performed with 190–300 nm wavelength, using a 1 mm light path. A blank was measured with buffer. For the melting analysis, 33 μM ConMot peptide was used in 20 mM Na-phosphate buffer pH 7.2. Detection was at 222 nm, temperature was scanned from 25–95°C. A blank with buffer only was subtracted.

MLH1-PMS2 = test: Comparison of MMR restoration with theoretical binding curves of peptide to protein; parameters: species or system human; conditions: theoretical binding curves at 11.1 nM MLH1; not a direct binding measurement; read-out: KD whose theoretical fraction of peptide binding to a protein corresponds to the degree of MMR restoration
Procedure: Figure 4. Reaction of DNA mismatch repair to addition of ConMot peptide. (A) Nuclear extract of MLH1-proficient HEK293 cells was used for performing the DNA mismatch repair reaction. Four reactions were undertaken, with two reactions supplemented with either 7.5 μM or 75 μM ConMot-32 peptide. A negative control reaction was performed by omitting the 37°C repair incubation. (B) MMR reactions were performed with nuclear extract of MLH1-deficient HEK293T cells supplemented with extract of cells transfected either with wildtype MLH1-PMS2 (positive control) or with MLH1-ΔConMot-PMS2. […] (C) The concentration-dependence of the MMR-activating effect of the ConMot-32 peptide observed in (B) was measured over a concentration range from 1–75 μM. […] Into this diagram, the average MMR activities (and standard deviations) measured in >3 of the experiment exemplarily shown in C were introduced as bars at ConMot-32 peptide concentrations of 1, 2.5, 7.5, 18 and 75 μM.
We investigated the effect of the ConMot peptide more closely by titrating the required peptide concentrations for activation. We determined that the mismatch repair reactions performed in this study contained approximately 280 fmol MLH1 (Supplementary Figure S4A and B), which is in good agreement with previous quantifications of MLH1-PMS2 in cells and extracts ([96]). […]
B. Immunoblot band intensities were determined. […]

Sequence: SGSSDKVYAHQMVRTDSREQKLDAFLQPLSKP [ConMot-32]
- secondary structure formation by melting analysis [1]: Neither investigation provided evidence for secondary structure formation
- Kd (MLH1-PMS2): ~7.5 µM
